Source: article PMC13198257, “An aerosolized dual-action autotaxin inhibitor-PPARγ agonist for the treatment of pulmonary fibrosis” (Cell Reports Medicine, 2026)

System: lung gene expression
Assay: RNA sequencing of lung tissue (BLM/EL244 vs BLM)
Format: in vivo, mouse
Settings: BLM/EL244 vs BLM, lung tissue
Protocol: RNA quality was assessed using an Agilent TapeStation 4150 with the High Sensitivity […] ScreenTape (Agilent), according to the manufacturer’s protocols. For library preparation, the QuantSeq 3’mRNA-Seq Library Prep Kit (Lexogen) was used according to manufacturer’s instructions. Briefly, 500 ng of RNA from each sample was used for first-strand synthesis, followed by RNA template removal, and second-strand synthesis initiated by random primers. In-line barcodes were introduced at this step, and this was followed by magnetic bead-based purification. The resulting libraries were amplified for 15 cycles and re-purified, with quantity and quality assessed on a Qubit 4 Fluorometer with the Invitrogen Qubit dsDNA HS Assay and an Agilent Tapestation 4150 with the High Sensitivity D1000 assay kit, respectively. The quantified libraries were pooled equimolarly; 50ng of total library mix was used for Adapter Conversion PCR Amplification using the Universal Library Conversion Kit (App-A), Version: V1.0 (MGI Tech Co., Ltd.), according to the manufacturer’s instructions.
The quantity and quality of the purified adapter conversion PCR (AC-PCR) product were evaluated on a Qubit 4 Fluorometer with the Invitrogen Qubit dsDNA HS Assay and on an Agilent Tapestation 4150 with the High Sensitivity D1000 assay kit, respectively. This was followed by DNA denaturation, Single-Strand Circularisation, Enzymatic Digestion, Enzymatic Digestion Product Cleanup and Quality Control steps on 1 pmol of AC-PCR product, according to the Universal Library Conversion Kit (App-A) User Manual (Version: A3).
Finally, 60 fmol of ssCirDNA were used for DNB preparation and sequencing on a DNBSEQ-G400 platform at the BSRC Alexander Fleming Genomics Facility, using a G400 App-A FCS SE100 High-throughput Sequencing Set (MGI Tech Co., Ltd.), according to the manufacturer’s instructions.
Alignment of the FASTQ files was performed against the mouse genome build mm10 using a custom Bash script.[143] Read counting on the 3′ UTRs and differential expression analysis were conducted using the metaseqR2 bioconductor package.[144] Genes corresponding to the following biotypes were excluded: polymorphic_pseudogene, processed_transcript, pseudogene, IG_V_pseudogene, misc_RNA, IG_C_gene, IG_J_gene, IG_D_gene, IG_LV_gene, TR_V_gene, TR_V_pseudogene, TEC, and processed_pseudogene. Gene counts were normalized with DESEQ[145] through metaseqR2. Genes with more than 10 counts in at least 50% of the samples were kept for further processing. For differential expression analysis, the PANDORA algorithm[146] was used to estimate a meta p-value integrating the results from the DESEQ, DESEQ2,[147] edgeR,[148] limma,[149] NBPSeq,[150] and NOISeq[151] algorithms. All additional parameters were set to default values.
Pathway enrichment analysis was performed for the Gene Ontology Biological process (BP) and Molecular Function (MF) terms through GeneCodis 4.[152] The volcano plots, scatterplots, Venn diagrams, and dot plots were generated using the ggplot2 Bioconductor package.

In the case of `O=C1NC(=O)C(Cc2ccc(OCCC3CCN(C(=O)OCc4cc(Cl)cc(Cl)c4)CC3)cc2)S1` (stereo not shown) [EL244, 3,5-dichlorobenzyl 4-(2-(4-((2,4-dioxothiazolidin-5-yl)methyl)phenoxy)ethyl)piperidine-1-carboxylate], the “1810020O05Rik log2 nFC” value is reported as 1.58, the “1810020O05Rik nFC” value is reported as 3.00 and the “2410004I01Rik log2 nFC” value is reported as 1.80. For the same compound, the “2410004I01Rik nFC” value was 3.47, the “9130230L23Rik log2 nFC” value was 1.34 and the “9130230L23Rik nFC” value was 2.53. The “9330159F19Rik log2 nFC” value was 1.78, the “9330159F19Rik nFC” value was 3.43 and the “9530026P05Rik log2 nFC” value was 3.17. For the same compound, the “9530026P05Rik nFC” value was 9.00, the “A3galt2 log2 nFC” value was 2.32 and the “A3galt2 nFC” value was 5.00. For the same compound, the “Acaa1b log2 nFC” value was 1.43, the “Acaa1b nFC” value was 2.69 and the “Acot1 log2 nFC” value was 1.08. For the same compound, the “Acot1 nFC” value was 2.11, the “Acoxl log2 nFC” value was 1.23 and the “Acoxl nFC” value was 2.35. For the same compound, the “Actc1 log2 nFC” value was 1.28, the “Actc1 nFC” value was 2.42 and the “Adam3 log2 nFC” value was 1.67. For the same compound, the “Adam3 nFC” value was 3.18, the “Alas2 log2 nFC” value was 1.58 and the “Alas2 nFC” value was 2.99. For the same compound, the “Ankrd63 log2 nFC” value was 1.34, the “Ankrd63 nFC” value was 2.54 and the “Aqp9 log2 nFC” value was 1.66. The “Aqp9 nFC” value was 3.15, the “Arhgap28 log2 nFC” value was 1.14 and the “Arhgap28 nFC” value was 2.21. The “Arl4d log2 nFC” value was 1.15, the “Arl4d nFC” value was 2.23 and the “Arrdc2 log2 nFC” value was 1.24. The “Arrdc2 nFC” value was 2.36, the “Asgr1 log2 nFC” value was 1.80 and the “Asgr1 nFC” value was 3.49. The “Baiap3 log2 nFC” value was 1.24, the “Baiap3 nFC” value was 2.36 and the “Bbof1 log2 nFC” value was 1.11. The “Bbof1 nFC” value was 2.15, the “Bex2 log2 nFC” value was 1.46 and the “Bex2 nFC” value was 2.76. For the same compound, the “Bpifa1 log2 nFC” value was 1.12, the “Bpifa1 nFC” value was 2.18 and the “C130080G10Rik log2 nFC” value was 3.58. The “C130080G10Rik nFC” value was 12.00, the “Car3 log2 nFC” value was 1.57 and the “Car3 nFC” value was 2.96. For the same compound, the “Casq2 log2 nFC” value was 2.36, the “Casq2 nFC” value was 5.15 and the “Cbs log2 nFC” value was 1.38. For the same compound, the “Cbs nFC” value was 2.61, the “Ccdc81 log2 nFC” value was 1.15 and the “Ccdc81 nFC” value was 2.23. For the same compound, the “Cd300lg log2 nFC” value was 1.18, the “Cd300lg nFC” value was 2.27 and the “Chia1 log2 nFC” value was 1.16. The “Chia1 nFC” value was 2.24, the “Chrdl1 log2 nFC” value was 1.39 and the “Chrdl1 nFC” value was 2.62. The “Cidec log2 nFC” value was 1.57, the “Cidec nFC” value was 2.96 and the “Ckm log2 nFC” value was 2.32. For the same compound, the “Ckm nFC” value was 5.00, the “Ckmt2 log2 nFC” value was 2.73 and the “Ckmt2 nFC” value was 6.63. For the same compound, the “Colq log2 nFC” value was 1.81, the “Colq nFC” value was 3.52 and the “Cox6a2 log2 nFC” value was 1.42. For the same compound, the “Cox6a2 nFC” value was 2.68, the “Crtc2 log2 nFC” value was 1.47 and the “Crtc2 nFC” value was 2.76. The “Csf3r log2 nFC” value was 1.69, the “Csf3r nFC” value was 3.22 and the “Csrp3 log2 nFC” value was 2.07. The “Csrp3 nFC” value was 4.19, the “Cst8 log2 nFC” value was 1.41 and the “Cst8 nFC” value was 2.66. The “Cxcl5 log2 nFC” value was 1.80, the “Cxcl5 nFC” value was 3.49 and the “Cxcr2 log2 nFC” value was 1.19. For the same compound, the “Cxcr2 nFC” value was 2.28, the “Cyp2a5 log2 nFC” value was 1.66 and the “Cyp2a5 nFC” value was 3.15. For the same compound, the “Cyp4b1 log2 nFC” value was 1.18, the “Cyp4b1 nFC” value was 2.26 and the “Cytl1 log2 nFC” value was 1.67. For the same compound, the “Cytl1 nFC” value was 3.18, the “D630024D03Rik log2 nFC” value was 1.60 and the “D630024D03Rik nFC” value was 3.03. For the same compound, the “Dpysl5 log2 nFC” value was 1.90, the “Dpysl5 nFC” value was 3.73 and the “Ear1 log2 nFC” value was 1.11. For the same compound, the “Ear1 nFC” value was 2.16, the “Eml5 log2 nFC” value was 1.41 and the “Eml5 nFC” value was 2.65. The “Esm1 log2 nFC” value was 1.28, the “Esm1 nFC” value was 2.43 and the “Fabp12 log2 nFC” value was 1.43. The “Fabp12 nFC” value was 2.69, the “Faim2 log2 nFC” value was 2.03 and the “Faim2 nFC” value was 4.10. The “Fam71f2 log2 nFC” value was 1.96, the “Fam71f2 nFC” value was 3.88 and the “Fosb log2 nFC” value was 2.38. The “Fosb nFC” value was 5.20, the “Ggt1 log2 nFC” value was 1.91 and the “Ggt1 nFC” value was 3.77. The “Gm867 log2 nFC” value was 2.18, the “Gm867 nFC” value was 4.53 and the “Gm4956 log2 nFC” value was 1.08. The “Gm4956 nFC” value was 2.12, the “Gm9780 log2 nFC” value was 2.06 and the “Gm9780 nFC” value was 4.18. For the same compound, the “Gm14964 log2 nFC” value was 1.87, the “Gm14964 nFC” value was 3.65 and the “Gm20186 log2 nFC” value was 1.31. The “Gm20186 nFC” value was 2.48, the “Gm42722 log2 nFC” value was 1.79 and the “Gm42722 nFC” value was 3.46. The “Gm49353 log2 nFC” value was 2.21, the “Gm49353 nFC” value was 4.62 and the “Gnmt log2 nFC” value was 1.14. For the same compound, the “Gnmt nFC” value was 2.20, the “Gpat3 log2 nFC” value was 1.34 and the “Gpat3 nFC” value was 2.54. The “Gria1 log2 nFC” value was 1.61, the “Gria1 nFC” value was 3.05 and the “Gsta3 log2 nFC” value was 1.10. For the same compound, the “Gsta3 nFC” value was 2.15, the “Gzma log2 nFC” value was 1.70 and the “Gzma nFC” value was 3.26. For the same compound, the “Hba-a1 log2 nFC” value was 1.21, the “Hba-a1 nFC” value was 2.32 and the “Hba-a2 log2 nFC” value was 1.14. The “Hba-a2 nFC” value was 2.21, the “Hbb-bs log2 nFC” value was 1.10 and the “Hbb-bs nFC” value was 2.15. The “Hbb-bt log2 nFC” value was 1.09, the “Hbb-bt nFC” value was 2.13 and the “Hhatl log2 nFC” value was 2.05. The “Hhatl nFC” value was 4.14, the “Hpgd log2 nFC” value was 1.63 and the “Hpgd nFC” value was 3.10. For the same compound, the “Igfbp3 log2 nFC” value was 1.75, the “Igfbp3 nFC” value was 3.37 and the “Igfbp6 log2 nFC” value was 1.68. The “Igfbp6 nFC” value was 3.21, the “Inmt log2 nFC” value was 1.34 and the “Inmt nFC” value was 2.54. The “Itga2b log2 nFC” value was 1.10, the “Itga2b nFC” value was 2.15 and the “Kcne2 log2 nFC” value was 1.32. The “Kcne2 nFC” value was 2.50, the “Klf15 log2 nFC” value was 1.42 and the “Klf15 nFC” value was 2.67. For the same compound, the “Klrc1 log2 nFC” value was 1.38, the “Klrc1 nFC” value was 2.61 and the “Krt79 log2 nFC” value was 1.75. For the same compound, the “Krt79 nFC” value was 3.36, the “Ldb3 log2 nFC” value was 1.52 and the “Ldb3 nFC” value was 2.86. For the same compound, the “Lrat log2 nFC” value was 1.15, the “Lrat nFC” value was 2.22 and the “Mb log2 nFC” value was 2.27. For the same compound, the “Mb nFC” value was 4.81, the “Mir6979 log2 nFC” value was 1.18 and the “Mir6979 nFC” value was 2.26. For the same compound, the “Mmp9 log2 nFC” value was 1.20, the “Mmp9 nFC” value was 2.30 and the “Mpp3 log2 nFC” value was 1.65. For the same compound, the “Mpp3 nFC” value was 3.14, the “Ms4a4d log2 nFC” value was 1.15 and the “Ms4a4d nFC” value was 2.21. For the same compound, the “Mybpc3 log2 nFC” value was 2.06, the “Mybpc3 nFC” value was 4.18 and the “Mybphl log2 nFC” value was 2.33. The “Mybphl nFC” value was 5.04, the “Myh6 log2 nFC” value was 2.62 and the “Myh6 nFC” value was 6.14. The “Myh7 log2 nFC” value was 2.22, the “Myh7 nFC” value was 4.68 and the “Myl4 log2 nFC” value was 1.94. The “Myl4 nFC” value was 3.85, the “Myl7 log2 nFC” value was 1.90 and the “Myl7 nFC” value was 3.73. The “Mylk3 log2 nFC” value was 2.03, the “Mylk3 nFC” value was 4.08 and the “Myom2 log2 nFC” value was 1.87. For the same compound, the “Myom2 nFC” value was 3.67, the “Ngp log2 nFC” value was 2.72 and the “Ngp nFC” value was 6.57. For the same compound, the “Nhlrc1 log2 nFC” value was 1.34, the “Nhlrc1 nFC” value was 2.53 and the “Npr3 log2 nFC” value was 1.53. For the same compound, the “Npr3 nFC” value was 2.88, the “Nr4a3 log2 nFC” value was 1.63 and the “Nr4a3 nFC” value was 3.09. The “Nrn1 log2 nFC” value was 1.84, the “Nrn1 nFC” value was 3.59 and the “Numb log2 nFC” value was 1.49. For the same compound, the “Numb nFC” value was 2.80, the “Pdk4 log2 nFC” value was 1.64 and the “Pdk4 nFC” value was 3.11. For the same compound, the “Phf24 log2 nFC” value was 1.57, the “Phf24 nFC” value was 2.97 and the “Pln log2 nFC” value was 2.30. The “Pln nFC” value was 4.92, the “Pmvk log2 nFC” value was 1.09 and the “Pmvk nFC” value was 2.13. For the same compound, the “Ppbp log2 nFC” value was 1.09, the “Ppbp nFC” value was 2.13 and the “Ppp4r4 log2 nFC” value was 1.26. The “Ppp4r4 nFC” value was 2.40, the “Pram1 log2 nFC” value was 1.64 and the “Pram1 nFC” value was 3.12. The “Prf1 log2 nFC” value was 1.34, the “Prf1 nFC” value was 2.53 and the “Prmt8 log2 nFC” value was 1.27. The “Prmt8 nFC” value was 2.41, the “Pwwp3b log2 nFC” value was 1.22 and the “Pwwp3b nFC” value was 2.33. For the same compound, the “Rab44 log2 nFC” value was 1.61, the “Rab44 nFC” value was 3.05 and the “Rassf10 log2 nFC” value was 1.19. For the same compound, the “Rassf10 nFC” value was 2.28, the “Rbfox3 log2 nFC” value was 1.26 and the “Rbfox3 nFC” value was 2.40. For the same compound, the “Rbm24 log2 nFC” value was 1.20.
